Reference: patent publication US20070128217A1 (priority 2003, published 2007)

Legend:
[1] = system: control sera (pooled serum of ten healthy LUMC hospital workers; commercial negative donor pooled serum from the Dutch bloodbank); assay type: binding, human; design: Binding of Control serum LUMC to linear peptides / Binding of Control serum Blood-bank to linear peptides / Binding of Control serum LUMC to looped peptides / Binding of Control Serum Blood-Bank to Looped peptides / Binding of Control serum LUMC to linear peptides of the protein M of SARS-CoV Urbani / Binding of Control serum Blood-bank to linear peptides of the protein M of SARS-CoV Urbani / Binding of Control serum LUMC to looped peptides of the protein M of SARS-CoV Urbani / Binding of Control Serum Blood-Bank to Looped peptides of the protein M of SARS-CoV Urbani: unit not given here
[2] = system: rabbit serum obtained by immunizing a rabbit with the SARS-CoV strain Frankfurt 1; assay type: binding; design: Binding of a rabbit serum to linear peptides / Binding of a rabbit serum to looped peptides / Rabbit serum linear peptides / Rabbit serum looped peptides / Binding of a rabbit serum to linear peptides of protein N of SARS-CoV Urbani (Rabbit serum linear peptides) / Binding of a rabbit serum to looped/cyclic peptides of protein N of SARS-CoV Urbani (Rabbit serum looped peptides): unit not given here
[3] = system: antibodies in sera from SARS patients (sera 1a, 1b, 2, 6, 37, 62, London, SARS-yellow, SARS-green); assay type: binding, human; design: Binding of serum 6 to linear peptides of protein X1 of SARS-CoV Urbani / Binding of serum 37 to linear peptides of protein X1 of SARS-CoV Urbani / Binding of serum 6 to looped/cyclic peptide (PEPSCAN-ELISA) / Binding of serum 37 to looped/cyclic peptide (PEPSCAN-ELISA) / Binding of serum 37 to looped/cyclic peptides of protein X1 of SARS-CoV Urbani / Binding of serum 6 to linear peptides of protein X2 / Binding of serum 37 to linear peptides of protein X2 / Binding of serum 37 to looped/cyclic peptides of protein X2 of SARS-CoV Urbani / Binding of serum 6 to linear peptides of protein M of SARS-CoV Urbani / Binding of serum 37 to linear peptides of protein M of SARS-CoV Urbani / Binding of serum 6 to looped/cyclic peptides of protein M of SARS-CoV Urbani / Binding of serum 37 to looped/cyclic peptides of protein M of SARS-CoV Urbani / Binding of serum 6 to linear peptides of protein X3 of SARS-CoV Urbani / Binding of serum 37 to linear peptides of protein X3 of SARS-CoV Urbani / Binding of serum 37 to looped/cyclic peptides of protein X3 of SARS-CoV Urbani / Binding of serum 6 to linear peptides of protein X4 of SARS-CoV Urbani / Binding of serum 37 to linear peptides of protein X4 of SARS-CoV Urbani / Binding of serum 37 to looped/cyclic peptides of protein X4 of SARS-CoV Urbani / Binding of serum 6 to linear peptides of protein X5 of SARS-CoV Urbani / Binding of serum 37 to linear peptides of protein X5 of SARS-CoV Urbani / Binding of serum 37 to looped/cyclic peptides of protein X5 of SARS-CoV Urbani / Binding of serum 6 to linear peptides of protein N of SARS-CoV Urbani / Binding of serum 37 to linear peptides of protein N of SARS-CoV Urbani / Binding of serum 6 to linear peptide (PEPSCAN-ELISA) / Binding of serum 1a to looped/cyclic peptides of protein N of SARS-CoV Urbani / Binding of serum 1b to looped/cyclic peptides of protein N of SARS-CoV Urbani / Binding of serum 2 to looped/cyclic peptides of protein N of SARS-CoV Urbani / Binding of serum 6 to looped/cyclic peptides of protein N of SARS-CoV Urbani / Binding of serum 37 to looped/cyclic peptides of protein N of SARS-CoV Urbani / Binding of serum 62 to looped/cyclic peptides of protein N of SARS-CoV Urbani / Binding of serum London to looped/cyclic peptides of protein N of SARS-CoV Urbani / Binding of serum SARS-green to looped/cyclic peptides of protein N of SARS-CoV Urbani: unit not given here

## AFLAVFQSATKIIAL
[1]
  Binding of Control Serum Blood-Bank to Looped peptides: 0.7
  Binding of Control serum Blood-bank to linear peptides: 0.5
  Binding of Control serum LUMC to linear peptides: 0.5
  Binding of Control serum LUMC to looped peptides: 0.6
[2]
  Binding of a rabbit serum to linear peptides: 0.2
  Binding of a rabbit serum to looped peptides: 0.8
[3]
  Binding of serum 1a to linear peptides of protein X1 of SARS-CoV Urbani: 0.7
  Binding of serum 1a to looped/cyclic peptide (PEPSCAN-ELISA): 0.5
  Binding of serum 1b to linear peptides of protein X1 of SARS-CoV Urbani: 0.4
  Binding of serum 1b to looped/cyclic peptide (PEPSCAN-ELISA): 0.4
  Binding of serum 2 to linear peptides of protein X1 of SARS-CoV Urbani: 0.5
  Binding of serum 2 to looped/cyclic peptide (PEPSCAN-ELISA): 0.5
  Binding of serum 6 to linear peptides of protein X1 of SARS-CoV Urbani: 0.4
  Binding of serum 6 to looped/cyclic peptide (PEPSCAN-ELISA): 1.3
  Binding of serum 37 to linear peptides of protein X1 of SARS-CoV Urbani: 0.6
  Binding of serum 37 to looped/cyclic peptide (PEPSCAN-ELISA): 0.6
  Binding of serum 62 to linear peptides of protein X1 of SARS-CoV Urbani: 0.5
  Binding of serum 62 to looped/cyclic peptide (PEPSCAN-ELISA): 0.6
  Binding of serum London to linear peptides of protein X1 of SARS-CoV Urbani: 0.2
  Binding of serum London to looped/cyclic peptide (PEPSCAN-ELISA): 1.6
  Binding of serum SARS-green to linear peptides of protein X1 of SARS-CoV Urbani: 0.3
  Binding of serum SARS-green to looped/cyclic peptide (PEPSCAN-ELISA): 0.3
  Binding of serum SARS-yellow to linear peptides of protein X1 of SARS-CoV Urbani: 0.3
  Binding of serum SARS-yellow to looped/cyclic peptide (PEPSCAN-ELISA): 0.6

## AFQHQNSKKTTKLVV
[1]
  Binding of Control Serum Blood-Bank to Looped peptides: 0.7
  Binding of Control serum Blood-bank to linear peptides: 0.6
  Binding of Control serum LUMC to linear peptides: 0.7
  Binding of Control serum LUMC to looped peptides: 0.6
[2]
  Recognition of the peptide by the rabbit serum: recognized
[3]
  Binding of serum 1a to linear peptides of protein X2: 0.6
  Binding of serum 1a to looped/cyclic peptides of protein X2 of SARS-CoV Urbani: 0.5
  Binding of serum 1b to linear peptides of protein X2: 0.5
  Binding of serum 1b to looped/cyclic peptides of protein X2 of SARS-CoV Urbani: 0.5
  Binding of serum 2 to linear peptides of protein X2: 0.6
  Binding of serum 2 to looped/cyclic peptides of protein X2 of SARS-CoV Urbani: 0.4
  Binding of serum 6 to linear peptides of protein X2: 0.9
  Binding of serum 6 to looped/cyclic peptides of protein X2 of SARS-CoV Urbani: 0.4
  Binding of serum 37 to linear peptides of protein X2: 0.8
  Binding of serum 37 to looped/cyclic peptides of protein X2 of SARS-CoV Urbani: 0.5
  Binding of serum 62 to linear peptides of protein X2: 0.4
  Binding of serum 62 to looped/cyclic peptides of protein X2 of SARS-CoV Urbani: 0.6
  Binding of serum London to linear peptides of protein X2: 0.4
  Binding of serum London to looped/cyclic peptides of protein X2 of SARS-CoV Urbani: 0.2
  Binding of serum SARS-green to linear peptides of protein X2: 0.2
  Binding of serum SARS-green to looped/cyclic peptides of protein X2 of SARS-CoV Urbani: 0.3
  Binding of serum SARS-yellow to linear peptides of protein X2: 0.7
  Binding of serum SARS-yellow to looped/cyclic peptides of protein X2 of SARS-CoV Urbani: 0.5

## AGMEAQFLYLYALIY
[1]
  Binding of Control Serum Blood-Bank to Looped peptides: 0.5
  Binding of Control serum Blood-bank to linear peptides: 0.5
  Binding of Control serum LUMC to linear peptides: 0.6
  Binding of Control serum LUMC to looped peptides: 0.6
[2]
  Binding of a rabbit serum to linear peptides: 0.1
  Binding of a rabbit serum to looped peptides: 0.6
[3]
  Binding of serum 1a to linear peptides of protein X1 of SARS-CoV Urbani: 0.7
  Binding of serum 1a to looped/cyclic peptide (PEPSCAN-ELISA): 0.5
  Binding of serum 1b to linear peptides of protein X1 of SARS-CoV Urbani: 0.6
  Binding of serum 1b to looped/cyclic peptide (PEPSCAN-ELISA): 0.4
  Binding of serum 2 to linear peptides of protein X1 of SARS-CoV Urbani: 0.6
  Binding of serum 2 to looped/cyclic peptide (PEPSCAN-ELISA): 0.4
  Binding of serum 6 to linear peptides of protein X1 of SARS-CoV Urbani: 0.4
  Binding of serum 6 to looped/cyclic peptide (PEPSCAN-ELISA): 0.3
  Binding of serum 37 to linear peptides of protein X1 of SARS-CoV Urbani: 0.5
  Binding of serum 37 to looped/cyclic peptide (PEPSCAN-ELISA): 0.5
  Binding of serum 62 to linear peptides of protein X1 of SARS-CoV Urbani: 0.4
  Binding of serum 62 to looped/cyclic peptide (PEPSCAN-ELISA): 0.6
  Binding of serum London to linear peptides of protein X1 of SARS-CoV Urbani: 0.2
  Binding of serum London to looped/cyclic peptide (PEPSCAN-ELISA): 0.2
  Binding of serum SARS-green to linear peptides of protein X1 of SARS-CoV Urbani: 0.1
  Binding of serum SARS-green to looped/cyclic peptide (PEPSCAN-ELISA): 0.2
  Binding of serum SARS-yellow to linear peptides of protein X1 of SARS-CoV Urbani: 0.2
  Binding of serum SARS-yellow to looped/cyclic peptide (PEPSCAN-ELISA): 0.3

## AIAMACIVGLMWLSY
[1]
  Binding of Control Serum Blood-Bank to Looped peptides of the protein M of SARS-CoV Urbani: 0.6
  Binding of Control serum Blood-bank to linear peptides of the protein M of SARS-CoV Urbani: 0.7
  Binding of Control serum LUMC to linear peptides of the protein M of SARS-CoV Urbani: 0.3
  Binding of Control serum LUMC to looped peptides of the protein M of SARS-CoV Urbani: 0.6
[2]
  Rabbit serum linear peptides: 0.4
  Rabbit serum looped peptides: 0.0
[3]
  Binding of serum 1a to linear peptides of protein M of SARS-CoV Urbani: 0.7
  Binding of serum 1a to looped/cyclic peptides of protein M of SARS-CoV Urbani: 0.5
  Binding of serum 1b to linear peptides of protein M of SARS-CoV Urbani: 0.5
  Binding of serum 1b to looped/cyclic peptides of protein M of SARS-CoV Urbani: 0.3
  Binding of serum 2 to linear peptides of protein M of SARS-CoV Urbani: 0.6
  Binding of serum 2 to looped/cyclic peptides of protein M of SARS-CoV Urbani: 0.4
  Binding of serum 6 to linear peptides of protein M of SARS-CoV Urbani: 0.4
  Binding of serum 6 to looped/cyclic peptides of protein M of SARS-CoV Urbani: 0.6
  Binding of serum 37 to linear peptides of protein M of SARS-CoV Urbani: 0.7
  Binding of serum 37 to looped/cyclic peptides of protein M of SARS-CoV Urbani: 0.5
  Binding of serum 62 to linear peptides of protein M of SARS-CoV Urbani: 0.7
  Binding of serum 62 to looped/cyclic peptides of protein M of SARS-CoV Urbani: 0.4
  Binding of serum London to linear peptides of protein M of SARS-CoV Urbani: 0.4
  Binding of serum London to looped/cyclic peptides of protein M of SARS-CoV Urbani: 0.2
  Binding of serum SARS-green to linear peptides of protein M of SARS-CoV Urbani: 0.3
  Binding of serum SARS-green to looped/cyclic peptides of protein M of SARS-CoV Urbani: 4.4
  Binding of serum SARS-yellow to linear peptides of protein M of SARS-CoV Urbani: 0.1
  Binding of serum SARS-yellow to looped/cyclic peptides of protein M of SARS-CoV Urbani: 0.8

## ALGKVLPFHRWHTMV
[1]
  Binding of Control Serum Blood-Bank to Looped peptides: 0.1
  Binding of Control serum Blood-bank to linear peptides: 0.8
  Binding of Control serum LUMC to linear peptides: 0.5
  Binding of Control serum LUMC to looped peptides: 0.5
[2]
  Rabbit serum linear peptides: 0.6
  Rabbit serum looped peptides: 0.1
[3]
  Binding of serum 1a to linear peptides of protein X5 of SARS-CoV Urbani: 0.9
  Binding of serum 1a to looped/cyclic peptides of protein X5 of SARS-CoV Urbani: 0.4
  Binding of serum 1b to linear peptides of protein X5 of SARS-CoV Urbani: 0.5
  Binding of serum 1b to looped/cyclic peptides of protein X5 of SARS-CoV Urbani: 0.0
  Binding of serum 2 to linear peptides of protein X5 of SARS-CoV Urbani: 0.7
  Binding of serum 2 to looped/cyclic peptides of protein X5 of SARS-CoV Urbani: 0.6
  Binding of serum 6 to linear peptides of protein X5 of SARS-CoV Urbani: 0.6
  Binding of serum 6 to looped/cyclic peptides of protein X5 of SARS-CoV Urbani: 0.3
  Binding of serum 37 to linear peptides of protein X5 of SARS-CoV Urbani: 0.6
  Binding of serum 37 to looped/cyclic peptides of protein X5 of SARS-CoV Urbani: 0.5
  Binding of serum 62 to linear peptides of protein X5 of SARS-CoV Urbani: 0.7
  Binding of serum 62 to looped/cyclic peptides of protein X5 of SARS-CoV Urbani: 0.5
  Binding of serum London to linear peptides of protein X5 of SARS-CoV Urbani: 0.7
  Binding of serum London to looped/cyclic peptides of protein X5 of SARS-CoV Urbani: 0.2
  Binding of serum SARS-green to linear peptides of protein X5 of SARS-CoV Urbani: 0.5
  Binding of serum SARS-green to looped/cyclic peptides of protein X5 of SARS-CoV Urbani: 0.6
  Binding of serum SARS-yellow to linear peptides of protein X5 of SARS-CoV Urbani: 0.2
  Binding of serum SARS-yellow to looped/cyclic peptides of protein X5 of SARS-CoV Urbani: 0.1
